For the assay, the target named is Galectin-3 (Homo sapiens, UniProt P17931). The assay can be described thus: Evaluation of Compound Inhibitory Activity (IC50). The protocol: Briefly, compounds are serially diluted in DMSO (working dilutions). ASF-coated 384 well plates are supplemented with 22.8 uL/well of biotinylated hGal-3 or hGal-1 in assay buffer (i.e. 300-1000 ng/mL biotinylated hGal-3 or hGal-1) to which 1.2 uL of compound working dilutions are added and mixed. Plates are incubated for 3 hours at 4 C., then washed with cold assay buffer (3x50 uL), incubated for 1 hour with 25 uL/well of a streptavidin-peroxidase solution (diluted in assay buffer to 80 ng/mL) at 4 C., followed by further washing steps with assay buffer (3x50 uL). Finally, 25 µL/well of ABTS substrate is added.

Structures are written as SMILES.

Sequence of Galectin-3 (P17931 whole entry): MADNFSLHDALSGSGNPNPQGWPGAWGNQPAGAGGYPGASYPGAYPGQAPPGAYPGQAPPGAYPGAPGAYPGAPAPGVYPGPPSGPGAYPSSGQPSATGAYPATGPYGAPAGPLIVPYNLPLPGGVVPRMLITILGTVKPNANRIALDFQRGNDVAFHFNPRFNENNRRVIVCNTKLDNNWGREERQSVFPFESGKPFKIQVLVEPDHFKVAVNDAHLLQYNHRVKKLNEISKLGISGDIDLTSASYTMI

One may read the IC50 as the concentration that inhibits the measured activity by half. Higher therefore signals weaker potency. In turn, `CO[C@@H]1[C@@H](n2cc(-c3cc(F)c(F)c(F)c3)nn2)[C@@H](O)[C@@H](CO)O[C@@H]1CC1=NOC2(CCC(C)CC2)C1` (stereo partly drawn) [US20230295182, Example 1.30] displayed an IC50 of 500 nM. The value for `OC[C@H]1O[C@H](CC2=NOC3(CCCCC3)C2)[C@H](OCC(F)F)[C@@H](n2cc(-c3cc(F)c(F)c(F)c3)nn2)[C@H]1O` [US20230295182, Example 1.67] was 230 nM; that for `CO[C@@H]1[C@@H](n2cc(-c3ccc(C)c(F)c3F)nn2)[C@@H](O)[C@@H](CO)O[C@@H]1CN1CC2(CCCCC2)NC1=O` [US20230295182, Example 4.01] was 46 nM.

The values are drawn from BindingDB's records for patent US20230295182 (Idorsia Pharmaceuticals, 2023).
